Assay results from patent US12187709B2 (Genentech, Inc., priority 2021, dated 2025).

Assays:
Cbl-b = Cbl-b (Homo sapiens (Human), UniProt Q13191); experiment: Cbl-b LCK Ub TR-FRET assay (Cbl-b Lck HTRF); assay type: biochemical; conditions: for IC50: Cbl-b LCK Ub TR-FRET; for fold-selectivity (Cbl-b over C-cbl): ratio C-cbl Lck HTRF IC50 / Cbl-b Lck HTRF IC50
Outline: (§1)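 After the ubiquitination reaction, detection mixture was added and plates incubated 20 min at room temperature before reading. IC50 values were calculated with wells lacking LCK as the low control and DMSO as the high control.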

c-Cbl = c-Cbl (Homo sapiens (Human), UniProt P22681); experiment: C-Cbl LCK Ub TR-FRET assay (C-cbl Lck HTRF); assay type: biochemical
Chain of c-Cbl (P22681 47-435): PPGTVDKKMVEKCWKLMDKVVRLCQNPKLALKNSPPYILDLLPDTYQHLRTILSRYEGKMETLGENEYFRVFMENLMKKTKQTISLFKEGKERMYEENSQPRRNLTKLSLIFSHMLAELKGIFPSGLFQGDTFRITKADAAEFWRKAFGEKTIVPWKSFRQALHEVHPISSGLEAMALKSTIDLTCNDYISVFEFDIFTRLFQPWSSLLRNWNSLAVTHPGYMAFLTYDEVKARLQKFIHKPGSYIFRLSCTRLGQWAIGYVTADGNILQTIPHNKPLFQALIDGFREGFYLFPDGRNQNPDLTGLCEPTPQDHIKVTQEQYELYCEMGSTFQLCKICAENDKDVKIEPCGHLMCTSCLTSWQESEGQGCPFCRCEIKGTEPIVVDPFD
Outline: as §1

[1] = molecular target: Human Cbl-b (residues 40-426) (Homo sapiens (Human), UniProt Q13191); experiment: Cbl-b SPR assay; assay type: binding; conditions: for Fold of selectivity: C-cbl SPR Kd vs Cbl-b SPR Kd; for Kd: SPR, 20° C.
Chain of Human Cbl-b (residues 40-426) (Q13191 40-426): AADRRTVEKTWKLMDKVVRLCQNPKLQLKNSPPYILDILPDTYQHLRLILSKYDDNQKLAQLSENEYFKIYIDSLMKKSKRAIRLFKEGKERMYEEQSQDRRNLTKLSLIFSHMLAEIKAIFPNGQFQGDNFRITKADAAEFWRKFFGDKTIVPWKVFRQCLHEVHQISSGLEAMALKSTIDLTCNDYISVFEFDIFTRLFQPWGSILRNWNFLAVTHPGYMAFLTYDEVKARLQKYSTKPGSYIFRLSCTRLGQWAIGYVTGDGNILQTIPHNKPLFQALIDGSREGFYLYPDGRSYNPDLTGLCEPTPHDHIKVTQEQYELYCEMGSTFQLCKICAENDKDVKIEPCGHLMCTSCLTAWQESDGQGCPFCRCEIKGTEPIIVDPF
Outline: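 First, protein is captured to 1300-1500 RU. Then compound runs in single cycle kinetics, a blank plus 5 two-fold concentrations up to 500 nM (120 s contact, 50 μl/min, 450 s dissociation). Chaser injections (20 s, 30 μl/min) track occupancy, giving kd, which is fixed when fitting the titration.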

c-Cbl (residues 47-435) = c-Cbl (residues 47-435) (Homo sapiens (Human), UniProt P22681); experiment: c-Cbl SPR assay; assay type: binding; conditions: 20° C.
Chain of c-Cbl (residues 47-435) (P22681 47-435): as the sequence (P22681 47-435) above
Protocol: Affinity of binding to Cbl-b and c-Cbl for compounds described herein was assessed by surface plasmon resonance (SPR) according to the following protocol.
A surface capture range of 1300-1500 RU of protein was used for both isoforms.
For SPR measurements, 6 concentrations with 2 fold serial dilution were measured with blanks flanking each series for double referencing. […] SPR sensorgrams were recorded in multi-cycle kinetics format, with a contact time of 60 seconds and a flow rate of 40 μl/min, the dissociation time was varied between 120-1200 seconds aiming for 4-5 half-lives of the measured interaction.
Kinetic and affinity parameters were extracted from the multicycle kinetics data fitting to a 1:1 binding model using the Biacore™ Incyte evaluation software (Cytiva).
Chaser assay utilize a single cycle kinetics SPR experiment with a contact time of 120 seconds, a flow rate of 50 μl/min and a dissociation time of 450 seconds. Single cycle kinetics titration utilized an initial blank injection and 5 concentrations with 2 fold serial dilution with a maximum concentration of 500 nM, blanked to a preceding 6 point blank single cycle kinetics injection for double referencing.
The kd is measured independently by determining the percentage unoccupied compound binding site over time by measuring the binding of a chaser compound measured by SPR.
Chaser binding was measured by a multicycle kinetics SPR experiment using a contact time of 20 seconds, a flow rate of 30 μl/min, and a dissociation time of 120 seconds. […] The % compound bound at a given time was determined by comparison to a single injection of chaser preceding the single cycle kinetics titration defined below. % Compound Bound=(1−(RUT/RUT0))*100
The % compound bound is plotted against time in seconds and fit to a single exponential, where the exponent represents the kd of the compound-protein complex. The single cycle kinetics experiment of the compound is then fit with a fixed kd determined using the chaser.

Chain of Cbl-b (Q13191 40-426): as the sequence (Q13191 40-426) above

IC50 (Cbl-b) [nM] | fold-selectivity (Cbl-b over C-cbl) (Cbl-b) [x] | IC50 (c-Cbl) [nM] | Fold of selectivity [1] [×] | Kd [1] [nM] | Kd (c-Cbl (residues 47-435)) [nM] | Structure (SMILES)
62 | 3.1 | 190 | 4.3 | 58 | 220 | Cn1cnnc1[C@@](O)(c1cccc(N2Cc3c(cc(CNC4(C)CCC4)cc3C(F)(F)F)C2=O)c1)C1COC1 (single isomer, unassigned) [Compound 143]
13 | 2.2 | 29 | 9.6 | 3.6 | 42 | Cn1cnnc1[C@H](c1cccc(N2Cc3c(cc(CNC4(C)CCC4)cc3C(F)(F)F)C2=O)c1)C1(O)COC1 (single isomer, unassigned) [Compound 147]
9.9 | 4.4 | 44 | 6.7 | 9.3 | 63 | Cn1cnnc1C1(c2cccc(N3Cc4c(cc([C@H](CO)NC5(C)CCC5)cc4C(F)(F)F)C3=O)c2)CCC1 (single isomer, unassigned) [Compound 148]
4.9 | 0.82 | 4.1 | 4.7 | 0.3 | 1.4 | Cn1cnnc1C1(c2cccc(N3Cc4c(cc([C@@H](CO)NC5(C)CCC5)cc4C(F)(F)F)C3=O)c2)CCC1 (single isomer, unassigned) [Compound 149]
9.1 | 1.4 | 13 | 8.5 | 2.9 | 28 | Cn1cnnc1C(F)(c1cccc(N2Cc3c(cc(CNC4(C)CCC4)cc3C(F)(F)F)C2=O)c1)C1COC1 (single isomer, unassigned) [Compound 150]
18 | 2.9 | 52 | 6.5 | 8.7 | 59 | Cn1cnnc1[C@@H](c1cc(F)cc(N2Cc3c(cc(CNC4(C)CCC4)cc3C(F)(F)F)C2=O)c1)C1COC1 (single isomer, unassigned) [Compound 152]
1300 | 3.9 | 5300 | 0.76 | 1300 | 1000 | Cn1cnnc1[C@]1(c2cccc(N3Cc4c(cc(CNC5(C)CCC5)cc4C(F)(F)F)C3=O)c2)C[C@@H]([S@+](C)[O-])C1 (single isomer, unassigned) [Compound 160]
600 | 7.2 | 4300 | 6.6 | 460 | 3000 | Cn1cnnc1[C@]1(c2cccc(N3Cc4c(cc(CNC5(C)CCC5)cc4C(F)(F)F)C3=O)c2)C[C@H]([S@@+](C)[O-])C1 (single isomer, unassigned) [Compound 161]
8.9 | 2.0 | 18 | 7.0 | 1.9 | 14 | Cn1cnnc1[C@@H](c1cccc(N2Cc3c(cc(CNC4(C)CCC4)cc3C(F)(F)F)C2=O)c1)C1COC1 (single isomer, unassigned) [Compound 164]
1900 | 3.8 | 7200 | 5.3 | 710 | 3800 | COC[C@@H]1CC1(c1cccc(N2Cc3c(cc(CNC4(C)CCC4)cc3C(F)(F)F)C2=O)c1)c1nncn1C (single isomer, unassigned) [Compound 166]
1400 | 4.7 | 6400 | 5.8 | 910 | 5200 | COC[C@H]1CC1(c1cccc(N2Cc3c(cc(CNC4(C)CCC4)cc3C(F)(F)F)C2=O)c1)c1nncn1C (single isomer, unassigned) [Compound 167]
12 | 1.0 | 12 | 2.8 | 4.9 | 15 | C[C@H](c1cccc(N2Cc3c(cc(CNC4(C)CCC4)cc3C(F)(F)F)C2=O)c1)c1nncn1C (single isomer, unassigned) [Compound 170]
1100 | 2.0 | 2300 | 2.1 | 800 | 1700 | C[C@@H](c1cccc(N2Cc3c(cc(CNC4(C)CCC4)cc3C(F)(F)F)C2=O)c1)c1nncn1C (single isomer, unassigned) [Compound 171, 2-(3-(1-(4-methyl-4H-1,2,4-triazol-3-yl)ethyl)phenyl)-6-(((1-methylcyclobutyl)amino)methyl)-4-(trifluoromethyl)isoindolin-1-one]
88 | 3.4 | 290 | 4.7 | 67 | 310 | CO[C@H]1C[C@@](c2cccc(N3Cc4c(cc(CN5CCN(C)C[C@@H]5C(C)C)cc4C(F)(F)F)C3=O)c2)(c2nncn2C)C1 (single isomer, unassigned) [Compound 172]
20 | 2.2 | 45 | 6.3 | 7.9 | 49 | C[C@H](NC1(C)CCC1)c1cc2c(c(C(F)(F)F)c1)CN(c1cccc(C3(c4nncn4C)CC(F)(F)C3)c1)C2=O (single isomer, unassigned) [Compound 173]
8.5 | 0.80 | 6.8 | 2.8 | 0.4 | 1.1 | C[C@@H](NC1(C)CCC1)c1cc2c(c(C(F)(F)F)c1)CN(c1cccc(C3(c4nncn4C)CC(F)(F)C3)c1)C2=O (single isomer, unassigned) [Compound 174]
9.6 | 1.0 | 9.7 | 6.4 | 0.95 | 6 | CO[C@H]1C[C@@](c2cccc(N3Cc4c(cc([C@@H](C)NC5(C)CCC5)cc4C(F)(F)F)C3=O)c2)(c2nncn2C)C1 (single isomer, unassigned) [Compound 175]
62 | 3.4 | 220 | 6.8 | 41 | 280 | CO[C@H]1C[C@@](c2cccc(N3Cc4c(cc([C@H](C)NC5(C)CCC5)cc4C(F)(F)F)C3=O)c2)(c2nncn2C)C1 (single isomer, unassigned) [Compound 176]
7.6 | 1.1 | 8.3 | 6.3 | 0.42 | 2.5 | CO[C@H]1C[C@](c2cccc(N3Cc4c(cc([C@@H](C)NC5(C)CCC5)cc4C(F)(F)F)C3=O)c2)(c2nncn2C)C1 (single isomer, unassigned) [Compound 184]
23 | 6.7 | 150 | 29 | 3.2 | 97 | CO[C@H]1C[C@](c2cccc(N3Cc4c(cc([C@H](C)NC5(C)CCC5)cc4C(F)(F)F)C3=O)c2)(c2nncn2C)C1 (single isomer, unassigned) [Compound 185]
13 | 2.3 | 29 | 4.1 | 3.7 | 15 | CC(C)[C@H]1CN(C)CCN1Cc1cc(Cl)c2c(c1)C(=O)N(c1cccc(C3(c4nncn4C)CC4(COC4)C3)c1)C2 (single isomer, unassigned) [Compound 204]
13 | 2.7 | 36 | 6.5 | 4.5 | 29 | C=C[C@@H](C)Nc1cc(N2Cc3c(cc(CNC4(C)CCC4)cc3C(F)(F)F)C2=O)cc([C@]2(c3nncn3C)C[C@H](OC)C2)c1 (single isomer, unassigned) [Compound 219]
13 | 3.0 | 39 | 13 | 2.7 | 34 | C=C[C@H](C)Nc1cc(N2Cc3c(cc(CNC4(C)CCC4)cc3C(F)(F)F)C2=O)cc([C@]2(c3nncn3C)C[C@H](OC)C2)c1 (single isomer, unassigned) [Compound 220]
